The values that follow come from patent publication US7824691B2 (priority 2005, dated 2010).

The test system of data set [1] is RAW264.7 cells. Kind of data set: LTA-induced TNF-α production by RAW264.7 cells (ELISA). Format: cell-based, murine. To be noted: 20 μg/mL inactive RIP peptide analogue; data not shown. How it is done: (§1) Cytokine production by RAW 264.7 cells: The murine macrophage cell line RAW264.7 was obtained from American Type Culture Collection (ATCC) and maintained in RPMI supplemented with 10% fetal calf serum (FCS), 2 mM L-glutamine, 100 units/mL penicillin and 100 μg/mL streptomycin in a humidified 37° C. incubator. RAW264.7 cells were plated in 24-well dishes at 10^6 cells/well in the above medium and incubated at 37° C. in 5% CO2 overnight. RPMI was aspirated from cells grown overnight and replaced with fresh medium. […] Peptides were added simultaneously with LTA. After 24 hours incubation, the supernatants were removed and tested for TNF-α production by enzyme linked immunosorbent assay (ELISA; Euroclone Life Sciences, Milan, Italy) according to the manufacturer's specification. All samples were run in duplicate. The detection limit for TNF-α was <0.025 ng/mL.
Background: ELISA stands for enzyme-linked immunosorbent assay.

The test system of data set [2] is RAW264.7 cells. Description: LTA-stimulated NO production by RAW264.7 cells (Griess reagent). Format: cell-based, murine. To be noted: 20 μg/mL inactive RIP peptide analogue; data not shown. How it is done: as §1
Nitric oxide (NO) detection: RAW264.7 cells were cultured as described above. The amount of LTA-stimulated production of NO in the supernatant over 24 hours was estimated from the accumulation of the stable NO metabolite nitrite with Griess reagent (Molecular Probes, Eugene, Oreg.) according to the manufacturer's instructions.
(In general: Griess reagent forms a coloured azo dye with nitrite.)

Data set [3] is described as follows: Toxicity in supplementary treated groups without challenge. To be noted: supplementary treated groups without previous infection. Format: in vivo, BALB/c male mice.
The next data set has as its system S. aureus ATCC 25923. Description: Murine sepsis model 1, live S. aureus i.v. challenge (lethality, bacteremia). Format: in vivo, BALB/c male mice. To be noted: for Lethality (%) / Lethality (dead/total): monitored 72 h; for Qualitative Blood Culture (positive/total) / Quantitative Blood Culture (CFU/ml), mean ± S.D.: blood 24 h after challenge. How it is done:
Animals: BALB/c male mice weighing 23 to 30 g were used for all the experiments. All animals were housed in individual cages under constant temperature (22° C.) and humidity with a 12 hour light/dark cycle and had access to food and water ad libitum throughout the study. The study was approved by the animal research ethics committee of the I.N.R.C.A.-I.R.R.C.S., Polytechnic University of Marche, Ancona, Italy.
Preparation of the inoculum: S. aureus ATCC 25923 were grown overnight at 37° C. in brain-heart infusion broth. When bacteria were in the log phase of growth the suspension was centrifuged at 1000× g for 15 min, the supernatant was discarded, and the bacteria were resuspended in sterile saline to achieve a concentration of approximately 1×10^7 CFU/mL.
(§2) Implantation of inoculum: All animals were anesthetized by an intramuscular injection of ketamine (30 mg/kg of body weight). Mice were injected intravenously (i.v.) via the tail vein with 0.2 mL of the above mentioned bacterial suspensions: (i) 2.0×10^6 CFU of S. aureus ATCC 25923 (model 1), or (ii) 5.0×10^8 heat-killed cells (model 2) on day 0 and monitored for 72 hours.
(§3) Antibiotic therapy. […] Each group included 20 mice. The animals were returned to individual cages and monitored for the subsequent 72 hours. The endpoints of the study were lethality rates (model 1), quantitative blood cultures (bacteremia, model 1), and TNF-α or IL-6 plasma levels (model 2).
Evaluation of treatment: Blood samples for culture were obtained from the tail vein by aseptic percutaneous puncture 24 h after bacterial challenge. The animals that died before this time were not tested. To perform quantitative bacterial cultures, blood samples were serially diluted, a 0.1 mL volume of each dilution was spread on blood agar plates and cultured at 35° C. for 48 h, and colony forming units (CFU) were counted. The limit of detection was <10 CFU/mL.
Statistical analysis: Lethality rates between groups were compared by use of Fisher's exact test. Data from quantitative blood cultures were presented as means±standard deviations (SDs) of the mean; statistical comparisons between groups were made by analysis of variance. Post hoc comparisons were performed by Bonferroni's test. Plasma IL-6 and TNF-α mean values were compared between groups by analysis of variance. Significance was accepted when the p value was <0.05.

The test system of another data set is TNF-α plasma levels. Description: Murine sepsis model 2, heat-killed S. aureus challenge, plasma TNF-α. Format: in vivo, BALB/c male mice. How it is done: (§4) Heat-killed S. aureus were prepared by boiling for 10 min and sonicating a bacterial suspension for 1 min in phosphate buffered saline containing approximately 2.5×10^9 cells/mL.
as §2, §3
(§5) Plasma TNF-α and IL-6 levels. […] TNF-α levels were measured with a solid phase sandwich enzyme-linked immunosorbent assay (ELISA). The intensity of the color was measured in a MR 700 Microplate Reader (Dynatech Laboratories, Guernsey, United Kingdom) by reading the absorbance at 450 nm. […] The plasma concentrations of IL-6 were also determined by ELISA, as described above. Quantification was performed on the basis of a standard curve. […]

A further data set has as its system IL-6 plasma levels. Description: Murine sepsis model 2, heat-killed S. aureus challenge, plasma IL-6. The data set is classed as in vivo, BALB/c male mice. How it is done:
as §4, §2, §3, §5

[4] abbreviates: model 1a: i.v. treatment immediately after challenge.
Where [5] appears, read: model 1a: treatment immediately after challenge.
[6] abbreviates: model 1b: i.v. treatment 6 h (360 min) after challenge.
Setting [7] is: model 1b: treatment 6 h after challenge.

Ends that are not written are not given here.

For “YKPETNF-NH2 [inactive RIP peptide analogue]”, the “decrease of LTA-induced TNF-α” value in the data set on RAW264.7 cells [1] is on record as “did not demonstrate decrease”. The “decrease of LTA-stimulated NO” value with RAW264.7 cells [2] is listed as “did not demonstrate decrease”.

For YSPWTNF-NH2 [RIP, YSPWTNF-NH2], in data set [3], the “changes in physiological parameters” value is on record as “no changes in physiological parameters” and the drug-related adverse effects result is recorded as “none of the animals had clinical evidence of drug-related adverse effects”.

For `CN[C@H](CC(C)C)C(=O)N[C@H]1C(=O)N[C@@H](CC(N)=O)C(=O)N[C@H]2C(=O)N[C@H]3C(=O)N[C@H](C(=O)N[C@H](C(=O)O)c4cc(O)cc(O)c4-c4cc3ccc4O)[C@H](O)c3ccc(c(Cl)c3)Oc3cc2cc(c3O[C@@H]2O[C@H](CO)[C@@H](O)[C@H](O)[C@H]2O[C@H]2C[C@](C)(N)[C@H](O)[C@H](C)O2)Oc2ccc(cc2Cl)[C@H]1O` [vancomycin], the “Lethality (%)” value in the data set with S. aureus ATCC 25923 (setting [4]) and with S. aureus ATCC 25923 (setting [6]) was 20% each time. The “Lethality (dead/total)” value in the data set on S. aureus ATCC 25923 (setting [4]) and with S. aureus ATCC 25923 (setting [6]) was 4/20 each time. Besides, the “Qualitative Blood Culture (positive/total)” value in the data set with S. aureus ATCC 25923 (setting [5]) and in the data set on S. aureus ATCC 25923 (setting [7]) was 5/20^df in each case. The “Quantitative Blood Culture (CFU/ml), mean ± S.D.” value is reported as 7.8±1.8×10^1 CFU/ml with S. aureus ATCC 25923 (setting [5]); 7.8 ± 1.8 × 10^1deg CFU/ml in the data set on S. aureus ATCC 25923 (model 1a: treatment immediately after challenge, listed as VAN); 9.0 ± 2.8 × 10^1deg CFU/ml with S. aureus ATCC 25923 (setting [7]). Besides, the TNF-α plasma levels entry with TNF-α plasma levels (model 2a: drugs at 0 min after heat-killed cell challenge, FIG. 3A) is recorded as “No substantial differences”. Further, the “plasma TNF-α concentrations” value with TNF-α plasma levels (model 2b: drugs 360 min after heat-killed bacterial challenge, FIG. 3B) is recorded as “constant increase”. Further, in the data set on IL-6 plasma levels (model 2a: drugs at 0 min after heat-killed cell challenge, FIG. 4A), the IL-6 plasma levels entry was “No substantial differences”. Further, the “plasma IL-6 concentrations” value with IL-6 plasma levels (model 2b: drugs 360 min after heat-killed bacterial challenge, FIG. 4B) was “constant increase”.

Take “GGLRSLGRKILRAWKKYGPIIVPIIRI-NH2 [BMAP-28]”: in data set [3], the “changes in physiological parameters” value is “no changes in physiological parameters” and the drug-related adverse effects entry is given as “none of the animals had clinical evidence of drug-related adverse effects”.

As to `C[C@@H](O)[C@H]1C(=O)N2C(C(=O)O)=C(SCCN=CN)C[C@H]12` [imipenem], the “Lethality (%)” value is 30% in the data set on S. aureus ATCC 25923 (setting [4]) and 35% in the data set on S. aureus ATCC 25923 (setting [6]). The “Quantitative Blood Culture (CFU/ml), mean ± S.D.” value in the data set with S. aureus ATCC 25923 (setting [5]) is recorded as 5.8 ± 1.4 × 10^2de CFU/ml; in the data set with S. aureus ATCC 25923 (setting [7]), 7.1 ± 1.7 × 10^2de CFU/ml.
